The first assay addresses T1, PIKFYVE (Homo sapiens, UniProt Q9Y2I7).
T1 construct: purchased Eurofins (KINOMEscan); host or cells: E. coli BL21-derived (T7 phage display) or HEK-293
Put plainly: KINOMEscan Kinase Assay (Eurofins), PIKFYVE inhibitory activity. The assay is classed as binding. The conditions noted are these: @ 3 nM.
T1 sequence (Q9Y2I7 whole entry): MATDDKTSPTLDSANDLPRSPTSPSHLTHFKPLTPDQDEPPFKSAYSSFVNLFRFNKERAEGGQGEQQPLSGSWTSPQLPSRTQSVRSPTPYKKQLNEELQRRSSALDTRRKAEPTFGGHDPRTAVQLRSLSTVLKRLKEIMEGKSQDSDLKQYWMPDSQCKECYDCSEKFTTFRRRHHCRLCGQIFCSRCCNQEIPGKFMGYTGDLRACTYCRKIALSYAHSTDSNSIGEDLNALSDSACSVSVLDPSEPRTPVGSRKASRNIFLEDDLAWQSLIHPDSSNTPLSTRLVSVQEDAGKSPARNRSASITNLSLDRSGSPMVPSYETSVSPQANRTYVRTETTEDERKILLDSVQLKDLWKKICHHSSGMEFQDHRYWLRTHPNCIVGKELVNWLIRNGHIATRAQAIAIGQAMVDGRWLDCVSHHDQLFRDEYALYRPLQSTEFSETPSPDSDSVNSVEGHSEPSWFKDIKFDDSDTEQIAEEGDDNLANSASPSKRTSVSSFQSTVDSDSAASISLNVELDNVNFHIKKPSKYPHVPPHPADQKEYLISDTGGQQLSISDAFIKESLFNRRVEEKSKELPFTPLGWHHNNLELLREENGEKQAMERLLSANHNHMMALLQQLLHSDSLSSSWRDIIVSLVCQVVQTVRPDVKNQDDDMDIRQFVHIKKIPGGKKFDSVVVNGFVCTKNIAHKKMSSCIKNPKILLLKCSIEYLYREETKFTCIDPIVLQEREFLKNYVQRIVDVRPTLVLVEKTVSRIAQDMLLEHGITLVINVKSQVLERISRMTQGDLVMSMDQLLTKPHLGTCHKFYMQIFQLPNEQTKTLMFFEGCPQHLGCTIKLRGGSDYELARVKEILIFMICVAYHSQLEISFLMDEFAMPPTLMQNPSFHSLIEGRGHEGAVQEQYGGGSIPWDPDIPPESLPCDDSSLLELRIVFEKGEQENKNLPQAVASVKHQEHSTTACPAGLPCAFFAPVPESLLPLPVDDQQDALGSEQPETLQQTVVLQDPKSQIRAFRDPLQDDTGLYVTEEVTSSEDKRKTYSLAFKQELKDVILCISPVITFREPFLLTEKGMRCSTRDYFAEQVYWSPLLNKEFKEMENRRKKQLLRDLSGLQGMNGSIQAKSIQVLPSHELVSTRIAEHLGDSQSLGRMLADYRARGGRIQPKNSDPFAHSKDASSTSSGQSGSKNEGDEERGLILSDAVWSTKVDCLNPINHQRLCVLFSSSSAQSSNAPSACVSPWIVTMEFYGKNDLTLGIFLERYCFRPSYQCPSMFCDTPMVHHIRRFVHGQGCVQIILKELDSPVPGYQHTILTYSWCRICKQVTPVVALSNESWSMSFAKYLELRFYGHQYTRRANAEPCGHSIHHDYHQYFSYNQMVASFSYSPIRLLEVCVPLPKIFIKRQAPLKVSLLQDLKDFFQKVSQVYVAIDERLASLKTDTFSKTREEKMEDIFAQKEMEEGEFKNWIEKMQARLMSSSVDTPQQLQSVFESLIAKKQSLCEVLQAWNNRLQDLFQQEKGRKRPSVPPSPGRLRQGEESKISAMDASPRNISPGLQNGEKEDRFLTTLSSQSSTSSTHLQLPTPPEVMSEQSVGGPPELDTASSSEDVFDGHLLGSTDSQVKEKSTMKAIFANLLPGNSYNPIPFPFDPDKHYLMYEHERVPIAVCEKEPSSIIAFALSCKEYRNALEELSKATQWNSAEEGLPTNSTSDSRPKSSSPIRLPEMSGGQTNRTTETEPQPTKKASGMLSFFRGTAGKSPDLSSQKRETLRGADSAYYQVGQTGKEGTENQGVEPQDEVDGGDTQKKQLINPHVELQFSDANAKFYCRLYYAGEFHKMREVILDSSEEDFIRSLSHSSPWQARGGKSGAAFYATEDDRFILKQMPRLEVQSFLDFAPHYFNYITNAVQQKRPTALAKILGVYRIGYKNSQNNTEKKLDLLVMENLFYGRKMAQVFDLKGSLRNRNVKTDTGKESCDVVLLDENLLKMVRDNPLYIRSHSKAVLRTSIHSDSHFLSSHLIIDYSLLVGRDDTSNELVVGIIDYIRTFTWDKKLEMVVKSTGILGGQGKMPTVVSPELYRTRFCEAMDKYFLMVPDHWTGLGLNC
Turning to `Cc1cccc(-c2ccn(-c3cc(N4CCOCC4)c4sc(CN5CCOCC5)c(C)c4n3)n2)c1` [Ex. 167, 4-(3-Methyl-2-(morpholinomethyl)-5-(3-(m-tolyl)-1H-pyrazol-1-yl)thieno[3,2-b]pyridin-7-yl)morpholine], the inhibition (commonly how much of the control response was suppressed) at 0.003 µM was determined as 0%.

Still in this assay, the particulars now being: @ 5 nM.
For `CC(=O)c1cccc(-c2ccn(-c3cc(N4CCOCC4)c4sc(CN5CCOCC5)cc4n3)n2)c1` [Ex. 184, 1-(3-(1-(7-Morpholino-2-(morpholinomethyl)thieno[3,2-b]pyridin-5-yl)-1H-pyrazol-3-yl)phenyl)ethan-1-one], 0.005 µM produced 5% inhibition.
`CC(O)c1cccc(-c2ccn(-c3cc(N4CCOCC4)c4sc(CN5CCOCC5)cc4n3)n2)c1` (centres unmarked) [Ex. 193, 1-(3-(1-(7-Morpholino-2-(morpholinomethyl)thieno[3,2-b]pyridin-5-yl)-1H-pyrazol-3-yl)phenyl)ethan-1-ol] gave an inhibition at 0.005 µM of 22%.
Same read-out and setting: with `Cc1cc(-c2ccn(-c3cc(N4CCOCC4)c4sc(CN5CCOCC5)cc4n3)n2)ccn1` [Ex. 190, 4-(5-(3-(2-Methylpyridin-4-yl)-1H-pyrazol-1-yl)-2-(morpholinomethyl)thieno[3,2-b]pyridin-7-yl) morpholine] the figure was 5%.

Staying with this assay, now noted: @ 50 nM.
As for `Cc1cccc(-c2ccn(-c3nc(N4CCOCC4)c4sc(CN5CCC(C(C)(C)O)CC5)cc4n3)n2)c1` [Ex. 5, 2-(1-((4-morpholino-2-(3-(m-tolyl)-1H-pyrazol-1-yl)thieno[3,2-d]pyrimidin-6-yl)methyl)piperidin-4-yl)propan-2-ol], the inhibition at 0.05 µM was 100%.

The assay is the same for the next values; noted with them: KINOMEscan.
As to `Cc1cccc(-c2ccn(-c3nc(N4CCOCC4)c4nc(CN5CCN(C)CC5)sc4n3)n2)c1` [Ex. 34, 4-(2-((4-methylpiperazin-1-yl)methyl)-5-(3-(m-tolyl)-1H-pyrazol-1-yl)thiazolo[5,4-d]pyrimidin-7-yl)morpholine], the IC50 (commonly the concentration that inhibits the measured activity by half) lay within 1 to 10 nM.
With `Cc1cccc(-c2ccn(-c3nc(N4CCOCC4)c4nc(CN5CCC(N6CCC6)C(F)C5)[nH]c4n3)n2)c1` (centres unmarked) [Ex. 43, 4-(8-((4-(azetidin-1-yl)-3-fluoropiperidin-1-yl)methyl-2-(3-m-tolyl)-1H-pyrazol-1-yl)-9H-purin-6-yl)morpholine], the IC50 is < 1 nM.
For `Cc1cccc(-c2ccn(-c3cc(N4CCOCC4)c4nc(CN5CCC(C(C)(C)O)CC5)n(C)c4n3)n2)c1` [Ex. 76, 2-(1-((3-methyl-7-morpholino-5-(3-(m-tolyl)-1H-pyrazol-1-yl)-3H-imidazo[4,5-b]pyridin-2-yl)methyl)piperidin-4-yl)propan-2-ol], the IC50 was < 1 nM.
On the same count and under the same terms, with `Cc1cccc(-c2ccn(-c3nc(N4CCOCC4)c4sc(CN5CCC6(OCCO6)C(F)C5)cc4n3)n2)c1` (centres unmarked) [Ex. 50, 6-fluoro-8-((4-morpholino-2-(3-(m-tolyl)-1H-pyrazol-1-yl)thieno[3,2-d]pyrimidin-6-yl)methyl)-1,4-dioxa-8-azaspiro[4.5]decane] the figure was 1 to 10 nM; with `Cc1cccc(-c2ccn(-c3nc(N4CCOCC4)c4sc(C(=O)N5CCN(C)CC5)cc4n3)n2)c1` [Ex. 25, (4-methylpiperazin-1-yl)(4-morpholino-2-(3-(m-tolyl)-1H-pyrazol-1-yl)thieno[3,2-d]pyrimidin-6-yl)methanone], < 1 nM; with `Cc1cccc(-c2ccn(-c3nc(N4CCOCC4)c4sc(C(=O)N5CCC(N(C)C)CC5)cc4n3)n2)c1` [Ex. 23, (4-(dimethylamino)piperidin-1-yl)(4-morpholino-2-(3-(m-tolyl)-1H-pyrazol-1-yl)thieno[3,2-d]pyrimidin-6-yl)methanone], < 1 nM.
For `Cc1cccc(-c2ccn(-c3cc(N4CCOCC4)c4sc(CN5CCOCC5)cc4n3)n2)c1` [Ex. 66, 4-((7-morpholino-5-(3-(m-tolyl)-1H-pyrazol-1-yl)thieno[3,2-b]pyridin-2-yl)methyl)morpholine], the IC50 was < 1 nM.
Take `Cc1cccc(-c2ccn(-c3nc(N4CCOCC4)c4sc(CN5CCC(N6CCC6)C(F)C5)c(C)c4n3)n2)c1` (centres unmarked) [Ex. 58, 4-(6-((4-(azetidin-1-yl)-3-fluoropiperidin-1-yl)methyl)-7-methyl-2-(3-(m-tolyl)-1H-pyrazol-1-yl)thieno[3,2-d]pyrimidin-4-yl)morpholine]: the half-inhibitory concentration (IC50) is < 1 nM.
Turning to `Cc1cccc(-c2ccn(-c3nc(N4CCOCC4)c4nc(C(C)N5CCN(S(C)(=O)=O)CC5)sc4n3)n2)c1` (centres unmarked) [Ex. 12, 4-(2-(1-(4-(methylsulfonyl)piperazin-1-yl)ethyl)-5-(3-(m-tolyl)-1H-pyrazol-1-yl)thiazolo[5,4-d]pyrimidin-7-yl)morpholine], the IC50 is 1 to 10 nM.
Same read-out and setting: with `Cc1cccc(-c2ccn(-c3cc(N4CCOCC4)c4nc(CN5CCC(N(C)C)C(F)C5)[nH]c4n3)n2)c1` (centres unmarked) [Ex. 52, 3-fluoro-N,N-dimethyl-1-((7-morpholino-5-(3-(m-tolyl)-1H-pyrazol-1-yl)-3H-imidazo[4,5-b]pyridin-2-yl)methyl)piperidin-4-amine] the figure was < 1 nM; with `Cc1cccc(-c2ccn(-c3nc(N4CCOCC4)c4sc(CN5CCC(N(C)C)C(F)C5)c(C)c4n3)n2)c1` (centres unmarked) [Ex. 55, 3-fluoro-N,N-dimethyl-1-((7-methyl-4-morpholino-2-(3-(m-tolyl)-1H-pyrazol-1-yl)thieno[3,2-d]pyrimidin-6-yl)methyl)piperidin-4-amine], < 1 nM; with `Cc1cccc(-c2ccn(-c3cc(N4CCOCC4)c4sc(CN5CCN(C)CC5)cc4n3)n2)c1` [Ex. 67], < 1 nM.
Consider `Cc1cccc(-c2ccn(-c3cc(N4CCOCC4)c4nc(CN5CCN(S(C)(=O)=O)CC5)n(C)c4n3)n2)c1` [Ex. 72, 4-(3-methyl-2-((4-(methylsulfonyl)piperazin-1-yl)methyl)-5-(3-(m-tolyl)-1H-pyrazol-1-yl)-3H-imidazo[4,5-b]pyridin-7-yl)morpholine], for which the IC50 was < 1 nM.
Consider `Cc1cccc(-c2ccn(-c3nc(N4CCOCC4)c4sc(CN5CCC(N(C)C)C(F)C5)cc4n3)n2)c1` (centres unmarked) [Ex. 51, 3-fluoro-N,N-dimethyl-1-((4-morpholino-2-(3-(m-tolyl)-1H-pyrazol-1-yl)thieno[3,2-d]pyrimidin-6-yl)methyl)piperidin-4-amine], for which the IC50 is < 1 nM.
For `Cc1cccc(-c2ccn(-c3nc(N4CCOCC4)c4sc(C(=O)N5CCC(C(C)(C)O)CC5)c(C)c4n3)n2)c1` [Ex. 61, (4-(2-hydroxypropan-2-yl)piperidin-1-yl)(7-methyl-4-morpholino-2-(3-(m-tolyl)-1H-pyrazol-1-yl)thieno[3,2-d]pyrimidin-6-yl)methanone], the IC50 is < 1 nM.
In the case of `Cc1cccc(-c2ccn(-c3cc(N4CCOCC4)c4sc(CN5CCC(N6CCC6)C(F)C5)cc4n3)n2)c1` (centres unmarked) [Ex. 70, 4-(2-((4-(azetidin-1-yl)-3-fluoropiperidin-1-yl)methyl)-5-(3-(m-tolyl)-1H-pyrazol-1-yl)thieno[3,2-b]pyridin-7-yl)morpholine], the IC50 was < 1 nM.
As for `Cc1cccc(-c2ccn(-c3nc(N4CCOCC4)c4sc(C(=O)N5CCC(C(C)(C)O)CC5)cc4n3)n2)c1` [Ex. 22, (4-(2-hydroxypropan-2-yl)piperidin-1-yl)(4-morpholino-2-(3-(m-tolyl)-1H-pyrazol-1-yl)thieno[3,2-d]pyrimidin-6-yl)methanone], the IC50 was < 1 nM.
On the same count and under the same terms, next, `Cc1cccc(-c2ccn(-c3cc(N4CCOCC4)c4nc(CN5CC(N(C)C)C5)[nH]c4n3)n2)c1` [Ex. 48, N,N-dimethyl-1-((7-morpholino-5-(3-(m-tolyl)-1H-pyrazol-1-yl)-3H-imidazo[4,5-b]pyridin-2-yl)methyl)azetidin-3-amine]: 1 to 10 nM.
